In patent publication US12172995B2, “Substituted indole and indazole compounds” (BRISTOL-MYERS SQUIBB COMPANY, priority 2018, dated 2024):

Experiments:
Format in all cases: cell-based
[1] = target: T1, human TLR7 (Homo sapiens, UniProt Q9NYK1); assay: TLR7 inhibition reporter assay (HEK-Blue SEAP); conditions: HEK-Blue cells overexpressing human TLR7, stimulated with gardiquimod 7.5 μM, 22 hour incubation
T1 construct: host or cells: HEK-Blue cells
T1 sequence (Q9NYK1 27-1049): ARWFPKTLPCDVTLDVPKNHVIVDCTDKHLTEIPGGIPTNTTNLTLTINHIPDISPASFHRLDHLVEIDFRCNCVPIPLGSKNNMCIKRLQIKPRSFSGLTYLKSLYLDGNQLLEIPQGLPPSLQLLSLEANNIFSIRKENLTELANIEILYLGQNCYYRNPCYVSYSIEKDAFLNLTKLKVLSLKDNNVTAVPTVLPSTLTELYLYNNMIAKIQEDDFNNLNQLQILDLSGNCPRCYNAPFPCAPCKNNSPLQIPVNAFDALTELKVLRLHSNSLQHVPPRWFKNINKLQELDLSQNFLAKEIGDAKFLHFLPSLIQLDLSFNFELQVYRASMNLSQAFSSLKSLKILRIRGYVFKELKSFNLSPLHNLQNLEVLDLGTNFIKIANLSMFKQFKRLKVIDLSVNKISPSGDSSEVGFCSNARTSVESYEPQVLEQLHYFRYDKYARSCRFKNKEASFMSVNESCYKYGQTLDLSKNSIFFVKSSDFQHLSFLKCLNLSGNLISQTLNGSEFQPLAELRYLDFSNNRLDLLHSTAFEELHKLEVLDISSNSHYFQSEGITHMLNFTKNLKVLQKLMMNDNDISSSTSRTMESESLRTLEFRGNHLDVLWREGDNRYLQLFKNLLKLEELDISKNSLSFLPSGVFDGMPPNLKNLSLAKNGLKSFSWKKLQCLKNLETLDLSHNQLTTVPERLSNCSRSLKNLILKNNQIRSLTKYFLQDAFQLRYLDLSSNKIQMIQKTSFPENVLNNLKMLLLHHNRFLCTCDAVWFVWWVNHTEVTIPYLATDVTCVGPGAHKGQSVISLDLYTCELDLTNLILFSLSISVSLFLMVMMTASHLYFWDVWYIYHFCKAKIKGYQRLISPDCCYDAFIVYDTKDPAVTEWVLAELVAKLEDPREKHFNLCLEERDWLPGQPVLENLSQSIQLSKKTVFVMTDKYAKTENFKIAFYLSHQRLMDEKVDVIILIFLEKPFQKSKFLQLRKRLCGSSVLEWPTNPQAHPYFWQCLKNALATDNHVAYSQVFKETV
Method: (§1) TLR7/8/9 Inhibition Reporter Assays
(§2) HEK-Blue™-cells (Invivogen) overexpressing human TLR7, TLR8 or TLR9 receptors were used for screening inhibitors of these receptors using an inducible SEAP (secreted embryonic alkaline phosphatase) reporter gene under the control of the IFN-β minimal promoter fused to five NF-κB and AP-1-binding sites. Briefly, cells are seeded into Greiner 384 well plates (15000 cells per well for TLR7, 20,000 for TLR8 and 25,000 for TLR9) and then treated with test compounds in DMSO to yield a final dose response concentration range of 0.05 nM to 50 μM. After a 30 minute compound pre-treatment at room temperature, the cells are then stimulated with a TLR7 ligand (gardiquimod at a final concentration of 7.5 μM), TLR8 ligand (R848 at a final concentration of 15.9 μM) or TLR9 ligand (ODN2006 at a final concentration of 5 nM) to activate NF-κB and AP-1 which induce the production of SEAP. After a 22 hour incubation at 37° C., 5% CO2, SEAP levels are determined with the addition of HEK-Blue™ Detection reagent (Invivogen), a cell culture medium that allows for detection of SEAP, according to manufacturer's specifications. The percent inhibition is determined as the % reduction in the HEK-Blue signal present in wells treated with agonist plus DMSO alone compared to wells treated with a known inhibitor.

[2] = target: T2, human TLR9 (Homo sapiens, UniProt Q9NR96); assay: TLR9 inhibition reporter assay (HEK-Blue SEAP); conditions: HEK-Blue cells overexpressing human TLR9, stimulated with ODN2006 5 nM, 22 hour incubation
T2 construct: host or cells: HEK-Blue cells
T2 sequence (Q9NR96 26-1032): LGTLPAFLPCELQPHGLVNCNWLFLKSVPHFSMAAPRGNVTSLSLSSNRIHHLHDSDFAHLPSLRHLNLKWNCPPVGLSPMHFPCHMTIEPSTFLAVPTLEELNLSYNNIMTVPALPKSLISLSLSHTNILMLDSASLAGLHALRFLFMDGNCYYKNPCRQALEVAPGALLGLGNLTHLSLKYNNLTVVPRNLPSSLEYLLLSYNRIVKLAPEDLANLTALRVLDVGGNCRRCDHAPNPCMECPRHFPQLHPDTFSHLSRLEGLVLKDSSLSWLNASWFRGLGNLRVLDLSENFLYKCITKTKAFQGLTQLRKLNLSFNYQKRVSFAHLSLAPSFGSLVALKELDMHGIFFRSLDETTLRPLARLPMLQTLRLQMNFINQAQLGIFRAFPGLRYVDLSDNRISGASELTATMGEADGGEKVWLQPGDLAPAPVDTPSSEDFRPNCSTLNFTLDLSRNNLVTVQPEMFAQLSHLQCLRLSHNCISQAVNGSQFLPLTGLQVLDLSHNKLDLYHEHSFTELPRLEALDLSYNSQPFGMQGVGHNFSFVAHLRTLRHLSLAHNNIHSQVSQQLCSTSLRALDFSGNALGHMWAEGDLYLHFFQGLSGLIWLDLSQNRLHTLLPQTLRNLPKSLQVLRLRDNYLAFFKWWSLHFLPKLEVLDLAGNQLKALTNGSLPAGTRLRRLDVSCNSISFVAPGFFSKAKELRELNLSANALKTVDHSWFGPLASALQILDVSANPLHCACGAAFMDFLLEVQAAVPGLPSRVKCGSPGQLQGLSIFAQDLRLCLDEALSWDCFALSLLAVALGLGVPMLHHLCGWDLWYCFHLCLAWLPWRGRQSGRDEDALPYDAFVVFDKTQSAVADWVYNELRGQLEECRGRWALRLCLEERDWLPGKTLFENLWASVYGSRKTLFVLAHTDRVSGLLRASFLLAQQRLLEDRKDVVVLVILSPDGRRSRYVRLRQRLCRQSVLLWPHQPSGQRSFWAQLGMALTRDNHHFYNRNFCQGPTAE
Method: as §1, §2

[3] = target: T3, human TLR8 (Homo sapiens, UniProt Q9NR97); assay: TLR8 inhibition reporter assay (HEK-Blue SEAP); conditions: HEK-Blue cells overexpressing human TLR8, stimulated with R848 15.9 μM, 22 hour incubation
T3 construct: host or cells: HEK-Blue cells
T3 sequence (Q9NR97 27-1041): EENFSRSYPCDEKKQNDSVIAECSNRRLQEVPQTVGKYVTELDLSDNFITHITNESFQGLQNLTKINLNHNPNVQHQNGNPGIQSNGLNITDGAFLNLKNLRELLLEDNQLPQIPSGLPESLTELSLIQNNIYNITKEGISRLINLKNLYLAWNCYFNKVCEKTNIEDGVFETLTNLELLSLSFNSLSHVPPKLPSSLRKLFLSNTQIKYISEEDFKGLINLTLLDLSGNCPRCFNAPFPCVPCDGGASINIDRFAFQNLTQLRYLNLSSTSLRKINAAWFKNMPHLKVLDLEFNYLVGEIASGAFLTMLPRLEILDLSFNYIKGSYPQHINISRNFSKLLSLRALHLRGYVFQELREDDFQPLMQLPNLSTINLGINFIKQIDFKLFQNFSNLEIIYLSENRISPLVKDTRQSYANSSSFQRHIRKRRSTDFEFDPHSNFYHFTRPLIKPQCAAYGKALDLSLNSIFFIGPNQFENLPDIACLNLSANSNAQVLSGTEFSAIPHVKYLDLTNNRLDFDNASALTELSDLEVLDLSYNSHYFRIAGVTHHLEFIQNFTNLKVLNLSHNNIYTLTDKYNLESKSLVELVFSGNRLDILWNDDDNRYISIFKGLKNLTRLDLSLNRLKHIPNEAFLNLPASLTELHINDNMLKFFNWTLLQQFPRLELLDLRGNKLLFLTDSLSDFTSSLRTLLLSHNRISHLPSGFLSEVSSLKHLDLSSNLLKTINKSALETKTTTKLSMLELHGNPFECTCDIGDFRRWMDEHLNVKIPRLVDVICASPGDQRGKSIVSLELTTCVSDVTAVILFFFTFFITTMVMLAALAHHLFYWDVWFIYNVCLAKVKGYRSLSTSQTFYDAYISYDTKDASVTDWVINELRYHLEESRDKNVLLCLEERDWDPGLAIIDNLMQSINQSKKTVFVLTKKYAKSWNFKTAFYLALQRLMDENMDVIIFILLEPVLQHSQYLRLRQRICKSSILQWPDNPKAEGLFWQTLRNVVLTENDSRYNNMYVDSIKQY
Method: as §1, §2

Compound | IC50 [1] [nM] | IC50 [2] [nM] | IC50 [3] [nM]
5-methyl-6-(8-methyl-[1,2,4]triazolo[1,5-a]pyridin-6-yl)-N-(piperidin-4-yl)-1H-indazol-3-amine [Example 203] | 51.7 | 1420 | 2.1
Cc1cc2c(C3CCC(N(C)C)CC3)n[nH]c2cc1-c1cc(C)c2ncnn2c1 (single isomer, unassigned) [Example 3, N,N-dimethyl-4-(5-methyl-6-(8-methyl-[1,2,4]triazolo[1,5-a]pyridin-6-yl)-1H-indazol-3-yl)cyclohexan-1-amine] | 10.2 | 1120 | 0.4
Cc1cc2c(C3CCC(N(C)C)CC3)n[nH]c2cc1-c1cc(C)c2ncnn2c1 (single isomer, unassigned) [Example 4, N,N-dimethyl-4-(5-methyl-6-(8-methyl-[1,2,4]triazolo[1,5-a]pyridin-6-yl)-1H-indazol-3-yl)cyclohexan-1-amine] | 19.9 | 2820 | 0.7
Cc1cc2c(C3CC(N(C)C)C3)n[nH]c2cc1-c1cc(C)c2ncnn2c1 (single isomer, unassigned) [Example 6, N,N-dimethyl-3-(5-methyl-6-(8-methyl-[1,2,4]triazolo[1,5-a]pyridin-6-yl)-1H-indazol-3-yl)cyclobutan-1-amine] | 9.3 | 3210 | 0.3
Cc1cc(-c2cc3[nH]nc(C4CCC(NCC(=O)N(C)C)CC4)c3cc2C(C)C)cn2ncnc12 (single isomer, unassigned) [Example 124, 2-((4-(5-isopropyl-6-(8-methyl-[1,2,4]triazolo[1,5-a]pyridin-6-yl)-1H-indazol-3-yl)cyclohexyl)amino)-N,N-dimethylacetamide] | 0.3 | 11000 | 
Cc1cc(-c2cc3[nH]nc(C4CCC(N5CCC6(COC6)C5)CC4)c3cc2C(C)C)cn2ncnc12 (single isomer, unassigned) [Example 159, 6-(4-(5-isopropyl-6-(8-methyl-[1,2,4]triazolo[1,5-a]pyridin-6-yl)-1H-indazol-3-yl)cyclohexyl)-2-oxa-6-azaspiro[3.4]octane] |  | 7430 | 0.1
Cc1cc(-c2cc3[nH]nc(C4CCC(N5CCC6(COC6)C5)CC4)c3cc2C(C)C)cn2ncnc12 (single isomer, unassigned) [Example 160, 6-(4-(5-isopropyl-6-(8-methyl-[1,2,4]triazolo[1,5-a]pyridin-6-yl)-1H-indazol-3-yl)cyclohexyl)-2-oxa-6-azaspiro[3.4]octane] |  | 7300 | 0.4
Cc1cc(-c2cc3[nH]nc(C4CCC(N5CCC(C)(O)C5)CC4)c3cc2C(C)C)cn2ncnc12 (single isomer, unassigned) [Example 165, 1-(4-(5-isopropyl-6-(8-methyl-[1,2,4]triazolo[1,5-a]pyridin-6-yl)-1H-indazol-3-yl)cyclohexyl)-3-methylpyrrolidin-3-ol] | 0.5 | 13300 | 
Cc1cc2cn[nH]c2cc1-c1cc(C)c2ncnn2c1 [Example 63, 8-methyl-6-(5-methyl-1H-indazol-6-yl)-[1,2,4]triazolo[1,5-a]pyridine] | 562 |  | 32.4
CCc1cc2c(C3CCN(C4COC4)CC3)n[nH]c2cc1-c1cc(C)c2ncnn2c1 [Example 89, 6-(5-ethyl-3-(1-(oxetan-3-yl)piperidin-4-yl)-1H-indazol-6-yl)-8-methyl-[1,2,4]triazolo[1,5-a]pyridine] | 8.3 |  | 0.7
Cc1cc(-c2cc3[nH]nc(C4CCC(N(C)C)CC4)c3cc2C(C)C)cn2ncnc12 (stereo not shown) [Example 114, 4-(5-isopropyl-6-(8-methyl-[1,2,4]triazolo[1,5-a]pyridin-6-yl)-1H-indazol-3-yl)-N,N-dimethylcyclohexan-1-amine] | 0.2 | 6670 | 
Cc1cc(-c2cc3[nH]nc(C4CCN(CCC#N)CC4)c3cc2C(C)C)cn2ncnc12 [Example 121, 3-(4-(5-isopropyl-6-(8-methyl-[1,2,4]triazolo[1,5-a]pyridin-6-yl)-1H-indazol-3-yl)piperidin-1-yl)propanenitrile] | 1.9 |  | 0.1
